Each structure is given as a SMILES string. Where only a bound is given, the exact number is not on record here.

The test has as its target T1, human mGlu2 (Homo sapiens, UniProt Q14416).
T1 construct: expressed in transfected cells; host or cells: HEK-293 cells stably co-expressing GIRK channels
The test is described as follows: mGlu GIRK cell-based thallium flux assay, human mGlu2. Conditions: HEK-293 cells co-expressing human mGlu2 and GIRK, EC80 glutamate. The procedure:
Human embryonic kidney (HEK-293) cell lines stably co-expressing human or rat mGlu2 and G protein-coupled inwardly rectifying potassium (GIRK) channels, or human mGlu3 and GIRK, were used for in vitro evaluation of compound activity in thallium flux assay using a fluorescent thallium indicator dye.
The day before the assay, GIRK cells co-expressing human mGlu3, human or rat mGlu2, as described above, were plated in black-walled, clear-bottomed, amine-coated 384-well plates at a density of 15,000 cells/20 μL/well in the assay medium (glutamine-depleted basal DMEM supplemented with 10% dialyzed FBS, 20 mM HEPES, 1 mM sodium pyruvate). Cells were incubated at 37° C. in the presence of 5% CO2. The next day, assay buffer (Hanks balanced salt solution, 20 mM HEPES, 4.16 mM sodium bicarbonate, pH 7.2) was prepared to dilute compounds and Thallos AM fluorescent dye solution. The 2× Thallos dye solution (final concentration 0.34 μM to the cells) was prepared by mixing the dye stock (2.97 mM in DMSO) to 1:1 with 10% pluronic acid before adding to the assay buffer. Cells were washed with assay buffer using a microplate washer to remove the medium, resulting in 20 μL of buffer remaining in each well. Immediately, 20 μL of 2× Thallos dye solution was added to cells, and incubated for one hour at 25° C. During the cell dye loading incubation period, a 10-point concentration serial dilution of compound was created from a 10 mM DMSO compound stock by performing a 1:3 serial dilution in DMSO using the Bravo liquid handler. The 2× compound plate was generated by transferring 0.24 μL of the diluted compound in each well to a daughter plate using an Echo acoustic liquid handler. This is further diluted in 40 μL assay buffer, resulting in a range from 30 μM to 1.5 nM final concentration in the assay. The agonist plate (5×) was prepared to include EC80 glutamate concentration (a concentration to elicit 80% of a maximally effective glutamate concentration) in thallium buffer (125 mM […], 1 mM magnesium sulfate, 1.8 mM calcium sulfate, 5 mM glucose, 10 mM HEPES, pH 7.2, 12.5 mM thallium sulfate).
After dye-loading, cell plates were washed with assay buffer to remove excess extracellular dye using a microplate washer, resulting in 20 μL of buffer remaining in each well. After a ten-minute equilibration period, cell, compound and agonist plates were loaded into a Hamamatsu μCell kinetic imaging plate reader equipped with liquid handler to monitor fluorescence changes at 480 nm excitation and 540 nm emission settings. Briefly, after collection of baseline fluorescence, 20 μL of compound was added and incubated for two minutes and twenty seconds. This is immediately followed by adding 10 μL of glutamate-thallium buffer to the wells containing compound. The fluorescent signal was monitored an additional 2.5 minutes after the glutamate addition. Multiple reference wells containing no compound received either no glutamate (for a baseline reference), EC80 glutamate, or ECmax glutamate (for normalization to maximum response). Fluorescence was measured throughout the experiment at a frequency of 1 measurement per every 2 seconds before the glutamate addition and a frequency of 1 measurement per every 1 second after the glutamate addition. Each compound concentration series occurred one time in each plate, and replicates from two or three plates were used in each experimental run. Thallium solutions were handled and disposed of according to guidelines from the Vanderbilt University Chemical Safety department.
Data were normalized using a static ratio function (F/F0) by dividing every fluorescent measurement by the initial fluorescent value for the corresponding well. The increase in signal resulting from the glutamate/thallium addition of the second add was measured by determining the slope from 3 seconds to 13 seconds after the addition. […]

T1 sequence (Q14416 19-872): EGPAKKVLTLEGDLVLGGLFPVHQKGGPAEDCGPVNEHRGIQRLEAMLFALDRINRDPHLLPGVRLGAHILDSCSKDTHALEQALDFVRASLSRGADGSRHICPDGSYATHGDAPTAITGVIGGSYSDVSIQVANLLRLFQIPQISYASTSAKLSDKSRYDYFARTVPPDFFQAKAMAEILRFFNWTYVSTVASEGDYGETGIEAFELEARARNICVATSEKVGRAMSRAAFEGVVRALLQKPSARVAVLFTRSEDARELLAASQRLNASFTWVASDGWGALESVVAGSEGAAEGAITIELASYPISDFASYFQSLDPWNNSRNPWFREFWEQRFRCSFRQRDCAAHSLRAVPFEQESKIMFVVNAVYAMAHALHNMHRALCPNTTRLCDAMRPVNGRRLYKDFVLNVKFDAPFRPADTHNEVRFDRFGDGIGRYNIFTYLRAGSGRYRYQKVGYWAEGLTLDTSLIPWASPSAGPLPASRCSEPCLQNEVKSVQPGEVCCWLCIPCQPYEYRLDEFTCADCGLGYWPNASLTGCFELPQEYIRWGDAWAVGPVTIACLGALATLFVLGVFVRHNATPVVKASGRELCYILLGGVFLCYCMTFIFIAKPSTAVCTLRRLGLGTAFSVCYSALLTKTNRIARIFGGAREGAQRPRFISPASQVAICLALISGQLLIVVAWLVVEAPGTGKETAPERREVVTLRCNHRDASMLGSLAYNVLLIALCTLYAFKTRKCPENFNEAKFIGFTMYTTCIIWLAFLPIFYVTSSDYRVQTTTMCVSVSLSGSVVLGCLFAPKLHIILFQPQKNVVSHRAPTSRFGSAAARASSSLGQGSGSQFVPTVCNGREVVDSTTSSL

In the case of `N#Cc1cccc(-c2cc3c(cc2-c2cc(F)c(F)cc2F)C(=O)NC3)c1` [Compound 140, 3-(1-oxo-6-(2,4,5-trifluorophenyl)isoindolin-5-yl)benzonitrile], 1520 nM corresponded to half-maximal inhibition (IC50).

`COc1ccc(F)cc1-c1cc2c(cc1-c1cccc(C#N)c1)CNC2=O` [Compound 186, 3-(6-(5-fluoro-2-methoxyphenyl)-1-oxoisoindolin-5-yl)benzonitrile]: the IC50 was over 10000 nM.

The compound `COc1cc(C#N)ccc1-c1cc2c(cc1-c1cccc(C#N)c1)CNC2=O` [Compound 166, 4-(6-(3-cyanophenyl)-3-oxoisoindolin-5-yl)-3-methoxybenzonitrile] yielded an IC50 of 2450 nM.

Turning to `N#Cc1cccc(-c2cc3c(cc2-c2cc(F)ccc2F)C(=O)NC3)c1` [Compound 185, 3-(6-(2,5-difluorophenyl)-1-oxoisoindolin-5-yl)benzonitrile], the 50% inhibitory concentration (IC50) is over 10000 nM.

The compound `N#Cc1cccc(-c2cc3c(cc2-c2ccc(O)cc2F)C(=O)NC3)c1` [Compound 168, 3-(6-(2-fluoro-4-hydroxyphenyl)-1-oxoisoindolin-5-yl)benzonitrile] showed an IC50 of over 10000 nM.

In turn, `CNS(=O)(=O)c1cccc(-c2cc3c(cc2-c2ccc(F)cc2F)C(=O)NC3)c1` [Compound 119, 3-(6-(2,4-difluorophenyl)-1-oxoisoindolin-5-yl)-N-methylbenzenesulfonamide] gave an IC50 of 2700 nM.

The compound `[2H]C([2H])([2H])n1nncc1-c1cccc(-c2cc3c(cc2-c2ccc(F)cc2F)C(=O)NC3)c1` [Compound 152, 6-(2,4-difluorophenyl)-5-(3-(1-(methyl-d3)-1H-1,2,3-triazol-5-yl)phenyl)isoindolin-1-one] returned an IC50 of 693 nM. This IC50 is about 3.9-fold lower than that of the compound before.

For the compound `O=C1NCc2cc(-c3ccnn3C3CCCCO3)c(-c3ccc(F)cc3F)cc21` (centres unmarked) [Compound 147, 6-(2,4-difluorophenyl)-5-(1-(tetrahydro-2H-pyran-2-yl)-1H-pyrazol-5-yl)isoindolin-1-one], the IC50 turned out to be 5910 nM.

The compound `Cn1ncc(-c2cc3c(cc2-c2ccc(F)cc2F)C(=O)NC3)c1C#N` [Compound 115, 4-(6-(2,4-difluorophenyl)-1-oxoisoindolin-5-yl)-1-methyl-1H-pyrazole-5-carbonitrile] displayed an IC50 of 234 nM.

`N#Cc1cc(F)ccc1-c1cc2c(cc1-c1ccc(F)cc1F)C(=O)NC2` [Compound 123, 2-(6-(2,4-difluorophenyl)-1-oxoisoindolin-5-yl)-5-fluorobenzonitrile] had an IC50 of 447 nM. This IC50 lies about 1.9-fold higher than the previous one.

Regarding `COc1ccc(-c2cc3c(cc2-c2cccc(C#N)c2)CNC3=O)c(Cl)c1` [Compound 173, 3-(6-(2-chloro-4-methoxyphenyl)-1-oxoisoindolin-5-yl)benzonitrile], the IC50 turned out to be 7340 nM.

Compound `O=C1NCc2cc(-c3cccc4c3CNC4=O)c(-c3ccc(F)cc3F)cc21` [Compound 136, 6′-(2,4-difluorophenyl)-[4,5′-biisoindoline]-1,1′-dione] returned an IC50 of 3180 nM.

For the compound `Cc1ccc(-c2cc3c(cc2-c2cccc(C#N)c2)CNC3=O)c(F)c1` [Compound 142, 3-(6-(2-fluoro-4-methylphenyl)-1-oxoisoindolin-5-yl)benzonitrile], the IC50 came to 1310 nM.

`O=C1NCc2cc(-c3ccc(=O)n(C(F)F)c3)c(-c3ccc(F)cc3F)cc21` [Compound 135, 5-(1-(difluoromethyl)-6-oxo-1,6-dihydropyridin-3-yl)-6-(2,4-difluorophenyl)isoindolin-1-one]: the IC50 came out at 2020 nM.

The compound `[2H]C1([2H])NC(=O)c2cc(-c3ccc(F)cc3F)c(C([2H])([2H])C([2H])([2H])c3ccn(C)n3)cc21` [Compound A5, 6-(2,4-difluorophenyl)-5-(2-(1-methyl-1H-pyrazol-3-yl)ethyl-1,1,2,2-d4)isoindolin-1-one-3,3-d2] yielded an IC50 of 205 nM. This IC50 is about 9.9-fold lower than that of the compound before.

Turning to `COc1cc(F)ccc1-c1cc2c(cc1-c1cccc(C#N)c1)CNC2=O` [Compound 156, 3-(6-(4-fluoro-2-methoxyphenyl)-1-oxoisoindolin-5-yl)benzonitrile], the IC50 was 660 nM.

Consider `Cc1cc(-c2cc3c(cc2-c2cccc(C#N)c2)CNC3=O)c(F)cc1C#N` [Compound 181, 4-(6-(3-cyanophenyl)-3-oxoisoindolin-5-yl)-5-fluoro-2-methylbenzonitrile], for which the IC50 is over 10000 nM.

Take `N#Cc1cccc(-c2cc3c(cc2-c2cc(C#N)ccc2F)C(=O)NC3)c1` [Compound 176, 3-(6-(3-cyanophenyl)-3-oxoisoindolin-5-yl)-4-fluorobenzonitrile]: the IC50 was over 10000 nM.

As for `CS(=O)(=O)n1cc(-c2cc3c(cc2-c2ccc(F)cc2F)C(=O)NC3)cn1` [Compound 127, 6-(2,4-difluorophenyl)-5-(1-(methylsulfonyl)-1H-pyrazol-4-yl)isoindolin-1-one], the IC50 is 7940 nM.

In turn, `Cn1ccc(CCc2cc3c(cc2-c2ccc(F)cc2F)C(=O)NC3)n1` [Compound A1, 6-(2,4-difluorophenyl)-5-(2-(1-methyl-1H-pyrazol-3-yl)ethyl)isoindolin-1-one] displayed an IC50 of 191 nM.

The compound `COc1ccc(-c2cc3c(cc2-c2cccc(C#N)c2)CNC3=O)c(C)c1` [Compound 175, 3-(6-(4-methoxy-2-methylphenyl)-1-oxoisoindolin-5-yl)benzonitrile] yielded an IC50 of over 10000 nM.

In turn, `CC(C)Cn1cc(-c2cc3c(cc2-c2ccc(F)cc2F)C(=O)NC3)cn1` [Compound 130, 6-(2,4-difluorophenyl)-5-(1-isobutyl-1H-pyrazol-4-yl)isoindolin-1-one] showed an IC50 of 1000 nM. This lies in the single-digit micromolar range.

For the compound `COc1ccc(-c2cc3c(cc2-c2cccc(C#N)c2)CNC3=O)c(F)c1F` [Compound 184, 3-(6-(2,3-difluoro-4-methoxyphenyl)-1-oxoisoindolin-5-yl)benzonitrile], the IC50 came to 1130 nM. The IC50 values of the last two compounds are within 1.5-fold of each other.

With `Cc1cc(-c2cc3c(cc2-c2cccc(C#N)c2)CNC3=O)c(F)cc1F` [Compound 177, 3-(6-(2,4-difluoro-5-methylphenyl)-1-oxoisoindolin-5-yl)benzonitrile], the midpoint of inhibition, the IC50, lay at 1350 nM. The IC50 values of the last two compounds are within 1.5-fold of each other.

With `O=C1NCc2cc(-c3cnn(C4COC4)c3)c(-c3ccc(F)cc3F)cc21` [Compound 155, 6-(2,4-difluorophenyl)-5-(1-(oxetan-3-yl)-1H-pyrazol-4-yl)isoindolin-1-one], the IC50 was over 10000 nM.

Compound `N#Cc1cccc(-c2cc3c(cc2-c2ccc(F)c(C#N)c2)C(=O)NC3)c1` [Compound 178, 5-(6-(3-cyanophenyl)-3-oxoisoindolin-5-yl)-2-fluorobenzonitrile] displayed an IC50 of over 10000 nM.

`COc1ccc(-c2cc3c(cc2-c2cccc(C#N)c2)CNC3=O)cc1F` [Compound 171, 3-(6-(3-fluoro-4-methoxyphenyl)-1-oxoisoindolin-5-yl)benzonitrile] came in with an IC50 of 3550 nM.

For the compound `Cc1ccc(-c2cc3c(cc2-c2cccc(C#N)c2)CNC3=O)c(C)c1` [Compound 161, 3-(6-(2,4-dimethylphenyl)-1-oxoisoindolin-5-yl)benzonitrile], the IC50 amounted to 4590 nM.

Compound `Cn1cc(S(=O)(=O)Nc2ccccc2-c2cc3c(cc2-c2ccc(F)cc2F)C(=O)NC3)nn1` [Compound 163, N-(2-(6-(2,4-difluorophenyl)-1-oxoisoindolin-5-yl)phenyl)-1-methyl-1H-1,2,3-triazole-4-sulfonamide] displayed an IC50 of 1110 nM.

The compound `O=C1NCc2cc(-c3cccc4c3OCC4)c(-c3ccc(F)cc3F)cc21` [Compound 149, 6-(2,4-difluorophenyl)-5-(2,3-dihydrobenzofuran-7-yl)isoindolin-1-one] displayed an IC50 of 532 nM.

`O=C1NCc2cc(-c3cnn(C4COC4)c3)c(-c3ccc(F)cc3)cc21` [Compound 3, 6-(4-fluorophenyl)-5-(1-(oxctan-3-yl)-1H-pyrazol-4-yl)isoindolin-1-one] had an IC50 of over 10000 nM.

For `N#Cc1cccc(-c2cc3c(cc2-c2c(F)cc(F)cc2F)C(=O)NC3)c1` [Compound 160, 3-(1-oxo-6-(2,4,6-trifluorophenyl)isoindolin-5-yl)benzonitrile], the IC50 was found to be 218 nM.

Source of the values: patent US20260098030A1, “NEGATIVE ALLOSTERIC MODULATORS OF METABOTROPIC GLUTAMATE RECEPTOR 2” (Vanderbilt University, priority 2022, published 2026).
